Calls of active or inactive are those of the source. No cut-off for these calls is given here.
Columns and labels:
[1] = biological target: Multidrug efflux pump subunit AcrB (Escherichia coli (strain K12)) (UniProt P31224); assay: Binding affinity to Escherichia coli K-12 MC1061 acrB assessed as susceptibility to compound efflux at 0.01 to 1 ug/ml after 16 hrs by plate reader assay
[2] = biological target: tRNA threonylcarbamoyladenosine biosynthesis protein TsaE (Escherichia coli (strain K12)) (UniProt P0AF67); assay: Inhibition of IPTG-stimulated Escherichia coli K-12 yjeE at 4 fold MIC by microarray analysis
[3] = biological target: Small ribosomal subunit protein bS18 (Escherichia coli (strain K12)) (UniProt P0A7T7); assay: Inhibition of IPTG-stimulated Escherichia coli K-12 rpSR at 4 fold MIC by microarray analysis
[4] = biological target: D-alanine--D-alanine ligase B (Escherichia coli K-12) (UniProt P07862); assay: Inhibition of IPTG-stimulated Escherichia coli K-12 ddlB at 4 fold MIC by microarray analysis
[5] = biological target: T1, Iron-sulfur cluster insertion protein ErpA (Escherichia coli (strain K12)) (UniProt P0ACC3); assay: Inhibition of IPTG-stimulated Escherichia coli K-12 yadR at 4 fold MIC by microarray analysis
T1 sequence (whole entry): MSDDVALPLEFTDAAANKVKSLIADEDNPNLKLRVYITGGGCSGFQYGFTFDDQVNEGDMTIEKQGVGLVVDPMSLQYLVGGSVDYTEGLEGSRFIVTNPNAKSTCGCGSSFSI

[6] = biological target: T2, Cell division protein FtsA (Escherichia coli (strain K12)) (UniProt P0ABH0); assay: Inhibition of IPTG-stimulated Escherichia coli K-12 ftsA at 4 fold MIC by microarray analysis
T2 sequence (whole entry): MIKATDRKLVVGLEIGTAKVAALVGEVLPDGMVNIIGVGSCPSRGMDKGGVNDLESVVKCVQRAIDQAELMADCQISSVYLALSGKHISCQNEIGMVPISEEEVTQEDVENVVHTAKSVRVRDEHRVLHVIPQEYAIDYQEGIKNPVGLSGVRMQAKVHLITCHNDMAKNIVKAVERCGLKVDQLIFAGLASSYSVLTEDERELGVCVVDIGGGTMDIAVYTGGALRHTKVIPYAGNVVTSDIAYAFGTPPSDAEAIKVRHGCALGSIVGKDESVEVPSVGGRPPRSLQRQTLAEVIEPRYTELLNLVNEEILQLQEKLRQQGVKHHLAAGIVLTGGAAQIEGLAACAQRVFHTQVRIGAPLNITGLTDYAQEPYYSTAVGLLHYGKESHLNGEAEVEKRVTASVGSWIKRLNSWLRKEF

[7] = biological target: UDP-3-O-acyl-N-acetylglucosamine deacetylase (Escherichia coli K-12) (UniProt P0A725); assay: Inhibition of IPTG-stimulated Escherichia coli K-12 envA at 4 fold MIC by microarray analysis
UDP-3-O-acyl-N-acetylglucosamine deacetylase (Escherichia coli K-12), sequence (P0A725 whole entry): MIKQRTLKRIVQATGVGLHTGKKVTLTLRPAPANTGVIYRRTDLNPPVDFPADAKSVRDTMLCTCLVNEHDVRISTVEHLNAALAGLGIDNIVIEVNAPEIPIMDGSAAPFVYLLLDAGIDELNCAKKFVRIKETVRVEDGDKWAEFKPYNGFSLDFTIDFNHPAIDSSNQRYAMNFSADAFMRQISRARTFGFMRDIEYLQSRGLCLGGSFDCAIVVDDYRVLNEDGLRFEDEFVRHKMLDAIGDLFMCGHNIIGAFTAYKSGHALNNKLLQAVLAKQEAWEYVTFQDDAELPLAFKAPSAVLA

[8] = biological target: T2, Cell division protein FtsA (Escherichia coli (strain K12)); assay: Inhibition of IPTG-stimulated Escherichia coli K-12 ftsA at 16 fold MIC by microarray analysis
[9] = biological target: T1, Iron-sulfur cluster insertion protein ErpA (Escherichia coli (strain K12)); assay: Inhibition of IPTG-stimulated Escherichia coli K-12 yadR at 16 fold MIC by microarray analysis
[10] = biological target: D-alanine--D-alanine ligase B (Escherichia coli K-12) (UniProt P07862); assay: Inhibition of IPTG-stimulated Escherichia coli K-12 ddlB at 16 fold MIC by microarray analysis
[11] = biological target: T2, Cell division protein FtsA (Escherichia coli (strain K12)); assay: Inhibition of IPTG-stimulated Escherichia coli K-12 ftsA at 8 fold MIC by microarray analysis
[12] = biological target: T1, Iron-sulfur cluster insertion protein ErpA (Escherichia coli (strain K12)); assay: Inhibition of IPTG-stimulated Escherichia coli K-12 yadR at 8 fold MIC by microarray analysis
[13] = biological target: D-alanine--D-alanine ligase B (Escherichia coli K-12) (UniProt P07862); assay: Inhibition of IPTG-stimulated Escherichia coli K-12 ddlB at 8 fold MIC by microarray analysis
[14] = biological target: T3, Outer membrane protein TolC (Escherichia coli (strain K12)) (UniProt P02930); assay: Inhibition of IPTG-stimulated Escherichia coli K-12 tolC at 4 fold MIC by microarray analysis
T3 sequence (whole entry): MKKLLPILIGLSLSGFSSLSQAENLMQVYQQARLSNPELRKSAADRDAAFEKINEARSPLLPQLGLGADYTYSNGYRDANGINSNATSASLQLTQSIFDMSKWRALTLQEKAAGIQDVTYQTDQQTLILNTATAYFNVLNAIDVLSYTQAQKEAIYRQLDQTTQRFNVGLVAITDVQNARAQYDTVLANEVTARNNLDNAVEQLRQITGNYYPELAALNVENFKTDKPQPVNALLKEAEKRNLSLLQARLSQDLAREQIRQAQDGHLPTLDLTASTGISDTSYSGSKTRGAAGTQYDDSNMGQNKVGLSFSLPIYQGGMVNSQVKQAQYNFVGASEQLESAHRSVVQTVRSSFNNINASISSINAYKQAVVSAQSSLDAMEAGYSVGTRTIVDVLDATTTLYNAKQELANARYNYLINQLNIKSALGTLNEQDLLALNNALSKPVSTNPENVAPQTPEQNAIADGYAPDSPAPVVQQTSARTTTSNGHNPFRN

[15] = biological target: UDP-N-acetylglucosamine 1-carboxyvinyltransferase (Escherichia coli K-12) (UniProt P0A749); assay: Inhibition of IPTG-stimulated Escherichia coli K-12 murA at 4 fold MIC by microarray analysis
UDP-N-acetylglucosamine 1-carboxyvinyltransferase (Escherichia coli K-12), sequence (P0A749 whole entry): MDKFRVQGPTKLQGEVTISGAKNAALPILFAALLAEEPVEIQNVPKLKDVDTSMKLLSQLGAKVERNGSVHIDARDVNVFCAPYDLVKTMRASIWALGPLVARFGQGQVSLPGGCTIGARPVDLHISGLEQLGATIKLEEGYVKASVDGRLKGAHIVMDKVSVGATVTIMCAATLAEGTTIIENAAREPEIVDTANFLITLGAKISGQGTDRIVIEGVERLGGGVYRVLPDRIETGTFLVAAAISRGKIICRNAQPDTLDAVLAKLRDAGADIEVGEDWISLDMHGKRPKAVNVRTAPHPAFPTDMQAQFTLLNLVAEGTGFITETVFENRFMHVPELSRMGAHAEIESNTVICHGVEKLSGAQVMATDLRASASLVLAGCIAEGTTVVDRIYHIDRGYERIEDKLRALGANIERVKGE

[16] = biological target: Multifunctional CCA protein (Escherichia coli (strain K12)) (UniProt P06961); assay: Inhibition of IPTG-stimulated Escherichia coli K-12 cca at 4 fold MIC by microarray analysis
Multifunctional CCA protein (Escherichia coli (strain K12)), sequence (P06961 whole entry): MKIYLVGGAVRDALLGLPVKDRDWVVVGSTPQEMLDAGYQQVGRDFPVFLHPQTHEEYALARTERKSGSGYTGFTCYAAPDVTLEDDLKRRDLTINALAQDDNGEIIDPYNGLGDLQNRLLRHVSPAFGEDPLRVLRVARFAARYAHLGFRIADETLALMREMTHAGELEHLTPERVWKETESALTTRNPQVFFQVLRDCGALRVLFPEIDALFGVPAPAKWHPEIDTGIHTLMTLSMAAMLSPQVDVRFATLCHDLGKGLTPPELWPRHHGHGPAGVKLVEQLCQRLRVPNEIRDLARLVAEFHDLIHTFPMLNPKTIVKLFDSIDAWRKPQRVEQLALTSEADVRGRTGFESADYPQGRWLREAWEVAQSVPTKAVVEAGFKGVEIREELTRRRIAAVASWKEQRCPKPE

[17] = biological target: T4, Uncharacterized protein YdiL (Escherichia coli (strain K12)) (UniProt P76196); assay: Inhibition of IPTG-stimulated Escherichia coli K-12 ydiL at 4 fold MIC by microarray analysis
T4 sequence (whole entry): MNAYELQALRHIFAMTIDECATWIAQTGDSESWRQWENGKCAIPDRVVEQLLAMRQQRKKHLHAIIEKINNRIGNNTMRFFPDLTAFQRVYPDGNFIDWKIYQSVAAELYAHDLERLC

[18] = biological target: Uncharacterized protein YdfB (Escherichia coli (strain K12)) (UniProt P29009); assay: Inhibition of IPTG-stimulated Escherichia coli K-12 ydfB at 4 fold MIC by microarray analysis
Uncharacterized protein YdfB (Escherichia coli (strain K12)), sequence (P29009 whole entry): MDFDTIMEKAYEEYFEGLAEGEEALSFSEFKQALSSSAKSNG

[19] = biological target: Putative reactive intermediate deaminase TdcF (Escherichia coli (strain K12)) (UniProt P0AGL2); assay: Inhibition of IPTG-stimulated Escherichia coli K-12 yhaR at 4 fold MIC by microarray analysis
Putative reactive intermediate deaminase TdcF (Escherichia coli (strain K12)), sequence (P0AGL2 whole entry): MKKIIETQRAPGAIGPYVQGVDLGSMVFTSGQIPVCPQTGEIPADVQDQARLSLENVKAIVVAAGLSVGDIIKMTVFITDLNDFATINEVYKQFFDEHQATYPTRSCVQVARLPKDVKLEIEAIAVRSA

[20] = biological target: Fructose-bisphosphate aldolase class 2 (Escherichia coli K-12) (UniProt P0AB71); assay: Inhibition of IPTG-stimulated Escherichia coli K-12 fbaA at 4 fold MIC by microarray analysis
Fructose-bisphosphate aldolase class 2 (Escherichia coli K-12), sequence (P0AB71 whole entry): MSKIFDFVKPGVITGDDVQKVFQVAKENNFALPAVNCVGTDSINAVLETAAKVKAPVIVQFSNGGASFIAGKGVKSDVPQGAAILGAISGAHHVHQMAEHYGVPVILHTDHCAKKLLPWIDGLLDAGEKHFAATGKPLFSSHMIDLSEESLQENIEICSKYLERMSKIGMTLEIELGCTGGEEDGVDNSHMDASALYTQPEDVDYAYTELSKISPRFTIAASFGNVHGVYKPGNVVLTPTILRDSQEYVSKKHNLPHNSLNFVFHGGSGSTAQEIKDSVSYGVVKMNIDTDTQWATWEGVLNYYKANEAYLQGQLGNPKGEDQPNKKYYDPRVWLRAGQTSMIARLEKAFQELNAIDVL

[21] = biological target: Acyl carrier protein (Escherichia coli (strain K12)) (UniProt P0A6A8); assay: Inhibition of IPTG-stimulated Escherichia coli K-12 acpP at 4 fold MIC by microarray analysis
Acyl carrier protein (Escherichia coli (strain K12)), sequence (P0A6A8 whole entry): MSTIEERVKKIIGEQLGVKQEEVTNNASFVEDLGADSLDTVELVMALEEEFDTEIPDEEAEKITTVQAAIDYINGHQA

[22] = biological target: 3-oxoacyl-[acyl-carrier-protein] synthase 1 (Escherichia coli K-12) (UniProt P0A953); assay: Inhibition of IPTG-stimulated Escherichia coli K-12 fabB at 4 fold MIC by microarray analysis
3-oxoacyl-[acyl-carrier-protein] synthase 1 (Escherichia coli K-12), sequence (P0A953 whole entry): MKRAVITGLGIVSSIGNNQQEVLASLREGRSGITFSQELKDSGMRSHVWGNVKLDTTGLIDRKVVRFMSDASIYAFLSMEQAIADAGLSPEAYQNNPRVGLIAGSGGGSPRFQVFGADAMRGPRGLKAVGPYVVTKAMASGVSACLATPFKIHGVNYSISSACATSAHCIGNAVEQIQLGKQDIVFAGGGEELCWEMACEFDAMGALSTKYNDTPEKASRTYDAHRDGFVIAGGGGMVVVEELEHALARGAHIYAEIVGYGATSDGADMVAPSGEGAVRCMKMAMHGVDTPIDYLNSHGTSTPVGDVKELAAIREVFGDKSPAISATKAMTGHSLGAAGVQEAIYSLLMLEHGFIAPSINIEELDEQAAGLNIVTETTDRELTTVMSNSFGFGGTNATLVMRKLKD

[23] = biological target: Guanylate kinase (Escherichia coli (strain K12)) (UniProt P60546); assay: Inhibition of IPTG-stimulated Escherichia coli K-12 gmk at 4 fold MIC by microarray analysis
Guanylate kinase (Escherichia coli (strain K12)), sequence (P60546 whole entry): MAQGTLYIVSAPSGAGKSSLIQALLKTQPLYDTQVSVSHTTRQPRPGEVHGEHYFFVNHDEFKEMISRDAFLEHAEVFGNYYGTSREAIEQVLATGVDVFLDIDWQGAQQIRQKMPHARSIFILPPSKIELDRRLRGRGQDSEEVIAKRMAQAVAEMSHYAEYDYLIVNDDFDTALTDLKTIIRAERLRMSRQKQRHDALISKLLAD

[24] = biological target: Octaprenyl diphosphate synthase (Escherichia coli (strain K12)) (UniProt P0AD57); assay: Inhibition of IPTG-stimulated Escherichia coli K-12 ispB at 4 fold MIC by microarray analysis
Octaprenyl diphosphate synthase (Escherichia coli (strain K12)), sequence (P0AD57 whole entry): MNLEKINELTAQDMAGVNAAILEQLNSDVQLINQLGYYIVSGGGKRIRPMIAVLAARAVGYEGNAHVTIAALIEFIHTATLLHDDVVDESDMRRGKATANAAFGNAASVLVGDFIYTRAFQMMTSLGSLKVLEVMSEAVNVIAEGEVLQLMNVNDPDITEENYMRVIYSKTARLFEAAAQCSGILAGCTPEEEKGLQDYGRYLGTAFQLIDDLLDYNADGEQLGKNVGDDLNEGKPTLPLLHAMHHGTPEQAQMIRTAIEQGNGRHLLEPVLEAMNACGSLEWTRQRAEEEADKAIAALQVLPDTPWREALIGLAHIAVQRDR

[25] = biological target: Farnesyl diphosphate synthase (Escherichia coli K-12) (UniProt P22939); assay: Inhibition of IPTG-stimulated Escherichia coli K-12 ispA at 4 fold MIC by microarray analysis
Farnesyl diphosphate synthase (Escherichia coli K-12), sequence (P22939 whole entry): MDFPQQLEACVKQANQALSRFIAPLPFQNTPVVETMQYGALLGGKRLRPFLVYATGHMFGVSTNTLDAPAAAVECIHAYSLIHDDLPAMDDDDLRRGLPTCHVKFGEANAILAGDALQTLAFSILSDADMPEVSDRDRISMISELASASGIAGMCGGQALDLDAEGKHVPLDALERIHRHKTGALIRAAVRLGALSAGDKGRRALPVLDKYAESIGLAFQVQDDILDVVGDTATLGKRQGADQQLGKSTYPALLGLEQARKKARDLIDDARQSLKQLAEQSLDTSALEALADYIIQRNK

[26] = biological target: 1-acyl-sn-glycerol-3-phosphate acyltransferase (Escherichia coli (strain K12)) (UniProt P26647); assay: Inhibition of IPTG-stimulated Escherichia coli K-12 plsC at 4 fold MIC by microarray analysis
1-acyl-sn-glycerol-3-phosphate acyltransferase (Escherichia coli (strain K12)), sequence (P26647 whole entry): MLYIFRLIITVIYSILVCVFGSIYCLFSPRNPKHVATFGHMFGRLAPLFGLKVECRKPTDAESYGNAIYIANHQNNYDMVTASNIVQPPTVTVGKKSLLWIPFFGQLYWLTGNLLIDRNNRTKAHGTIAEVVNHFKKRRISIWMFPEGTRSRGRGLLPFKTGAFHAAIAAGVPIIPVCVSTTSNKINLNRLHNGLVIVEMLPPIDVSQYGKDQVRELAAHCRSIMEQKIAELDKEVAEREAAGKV

[27] = biological target: UDP-N-acetylmuramoyl-L-alanyl-D-glutamate--2,6-diaminopimelate ligase (Escherichia coli (strain K12)) (UniProt P22188); assay: Inhibition of IPTG-stimulated Escherichia coli K-12 murE at 4 fold MIC by microarray analysis
[28] = biological target: CDP-diacylglycerol--glycerol-3-phosphate 3-phosphatidyltransferase (Escherichia coli (strain K12)) (UniProt P0ABF8); assay: Inhibition of IPTG-stimulated Escherichia coli K-12 pgsA at 4 fold MIC by microarray analysis
CDP-diacylglycerol--glycerol-3-phosphate 3-phosphatidyltransferase (Escherichia coli (strain K12)), sequence (P0ABF8 whole entry): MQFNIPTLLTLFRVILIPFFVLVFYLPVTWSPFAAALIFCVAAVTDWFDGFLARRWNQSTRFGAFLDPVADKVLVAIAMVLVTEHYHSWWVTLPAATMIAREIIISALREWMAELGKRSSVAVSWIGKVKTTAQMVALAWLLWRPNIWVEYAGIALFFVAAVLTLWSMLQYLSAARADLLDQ

[29] = biological target: T5, Dihydrofolate synthase/folylpolyglutamate synthase (Escherichia coli (strain K12)) (UniProt P08192); assay: Inhibition of IPTG-stimulated Escherichia coli K-12 folC at 4 fold MIC by microarray analysis
T5 sequence (whole entry): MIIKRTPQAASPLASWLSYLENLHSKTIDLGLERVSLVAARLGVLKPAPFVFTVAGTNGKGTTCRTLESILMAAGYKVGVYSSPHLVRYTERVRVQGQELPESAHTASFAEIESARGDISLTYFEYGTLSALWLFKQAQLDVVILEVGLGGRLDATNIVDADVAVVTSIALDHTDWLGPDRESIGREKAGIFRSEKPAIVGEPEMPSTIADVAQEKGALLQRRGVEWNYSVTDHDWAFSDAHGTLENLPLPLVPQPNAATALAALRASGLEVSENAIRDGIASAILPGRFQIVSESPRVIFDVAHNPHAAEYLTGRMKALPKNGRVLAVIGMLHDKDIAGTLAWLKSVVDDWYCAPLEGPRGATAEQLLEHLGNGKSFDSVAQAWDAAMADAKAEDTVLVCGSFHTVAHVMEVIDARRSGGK

[30] = biological target: T3, Outer membrane protein TolC (Escherichia coli (strain K12)); assay: Inhibition of IPTG-stimulated Escherichia coli K-12 tolC at 16 fold MIC by microarray analysis
[31] = biological target: T5, Dihydrofolate synthase/folylpolyglutamate synthase (Escherichia coli (strain K12)); assay: Inhibition of IPTG-stimulated Escherichia coli K-12 folC at 16 fold MIC by microarray analysis
[32] = biological target: Acyl carrier protein (Escherichia coli (strain K12)) (UniProt P0A6A8); assay: Inhibition of IPTG-stimulated Escherichia coli K-12 acpP at 8 fold MIC by microarray analysis
[33] = biological target: 3-oxoacyl-[acyl-carrier-protein] synthase 1 (Escherichia coli K-12) (UniProt P0A953); assay: Inhibition of IPTG-stimulated Escherichia coli K-12 fabB at 8 fold MIC by microarray analysis
[34] = biological target: Octaprenyl diphosphate synthase (Escherichia coli (strain K12)) (UniProt P0AD57); assay: Inhibition of IPTG-stimulated Escherichia coli K-12 ispB at 8 fold MIC by microarray analysis
[35] = biological target: Large ribosomal subunit protein bL28 (Escherichia coli (strain K12)) (UniProt P0A7M2); assay: Inhibition of IPTG-stimulated Escherichia coli K-12 rpmB at 4 fold MIC by microarray analysis

Multidrug efflux pump subunit AcrB (Escherichia coli (strain K12)), sequence (P31224 whole entry): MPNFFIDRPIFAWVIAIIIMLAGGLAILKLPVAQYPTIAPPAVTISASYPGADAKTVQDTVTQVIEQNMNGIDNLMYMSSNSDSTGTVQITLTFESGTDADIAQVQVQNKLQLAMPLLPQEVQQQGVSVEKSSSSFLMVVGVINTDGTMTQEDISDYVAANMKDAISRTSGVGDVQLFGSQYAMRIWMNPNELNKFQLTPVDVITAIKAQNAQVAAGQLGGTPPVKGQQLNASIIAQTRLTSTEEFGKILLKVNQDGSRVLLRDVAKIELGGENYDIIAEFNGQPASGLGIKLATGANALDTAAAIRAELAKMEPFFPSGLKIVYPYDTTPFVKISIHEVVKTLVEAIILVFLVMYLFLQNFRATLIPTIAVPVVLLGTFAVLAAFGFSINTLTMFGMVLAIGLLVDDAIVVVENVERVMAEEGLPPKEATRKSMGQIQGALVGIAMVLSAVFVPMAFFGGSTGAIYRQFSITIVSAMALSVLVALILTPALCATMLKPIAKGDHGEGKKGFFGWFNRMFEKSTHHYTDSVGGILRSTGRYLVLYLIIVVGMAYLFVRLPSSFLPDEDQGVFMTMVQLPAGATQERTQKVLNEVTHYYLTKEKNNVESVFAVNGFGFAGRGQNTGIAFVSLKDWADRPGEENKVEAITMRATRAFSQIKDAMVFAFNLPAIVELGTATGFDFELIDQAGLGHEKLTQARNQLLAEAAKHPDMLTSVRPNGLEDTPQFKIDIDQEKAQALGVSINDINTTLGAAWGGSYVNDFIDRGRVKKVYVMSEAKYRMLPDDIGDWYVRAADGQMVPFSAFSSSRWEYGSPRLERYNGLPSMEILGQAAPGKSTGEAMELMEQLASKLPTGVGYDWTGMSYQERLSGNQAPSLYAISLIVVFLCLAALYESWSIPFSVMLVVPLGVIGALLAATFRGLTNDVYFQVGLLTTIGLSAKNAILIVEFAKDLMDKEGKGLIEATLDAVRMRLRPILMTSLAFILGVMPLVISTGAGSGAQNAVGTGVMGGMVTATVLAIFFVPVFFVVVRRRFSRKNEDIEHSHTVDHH

For `CCn1cc(C(=O)O)c(=O)c2cc(F)c(N3CCNCC3)cc21`, the Activity [1] was “inactive”.

`N[C@@H]1CONC1=O` was tested, and the inhibition [2] was “Active”, the inhibition [3] was “Active” and the inhibition [4] was “Active”. For the same compound, the inhibition [5] was “Active”, the inhibition [6] was “Active” and the inhibition [7] was “Active”. The inhibition [8] was “Active”, the inhibition [9] was “Active” and the inhibition [10] was “Active”. The inhibition [11] was “Active”, the inhibition [12] was “Active” and the inhibition [13] was “Active”. For the same compound, the inhibition [14] was “Active”.

With `C[C@@H]1O[C@@H]1P(=O)(O)O` the inhibition [15] was “Active”, the inhibition [16] was “Active” and the inhibition [17] was “Active”. For the same compound, the inhibition [18] was “Active”, the inhibition [19] was “Active” and the inhibition [20] was “Active”. For the same compound, the inhibition [21] was “Active”, the inhibition [22] was “Active” and the inhibition [23] was “Active”. The inhibition [24] was “Active”, the inhibition [25] was “Active” and the inhibition [26] was “Active”. For the same compound, the inhibition [27] was “Active”, the inhibition [28] was “Active” and the inhibition [29] was “Active”. The inhibition [30] was “Active”, the inhibition [31] was “Active” and the inhibition [32] was “Active”. For the same compound, the inhibition [33] was “Active”, the inhibition [34] was “Active” and the inhibition [35] was “Active”.

From ChEMBL document CHEMBL1212733, “Chemical genomics in Escherichia coli identifies an inhibitor of bacterial lipoprotein targeting” (Nat Chem Biol, 2009)
